# From PMC10383271
# Legend:
# COX-1 = target: T1, COX-1 (Ovis aries, UniProt P05979); assay: COX-1 inhibition, Cayman's COX Colorimetric Inhibitor Screening Assay Kit
# T1 sequence (P05979 25-600): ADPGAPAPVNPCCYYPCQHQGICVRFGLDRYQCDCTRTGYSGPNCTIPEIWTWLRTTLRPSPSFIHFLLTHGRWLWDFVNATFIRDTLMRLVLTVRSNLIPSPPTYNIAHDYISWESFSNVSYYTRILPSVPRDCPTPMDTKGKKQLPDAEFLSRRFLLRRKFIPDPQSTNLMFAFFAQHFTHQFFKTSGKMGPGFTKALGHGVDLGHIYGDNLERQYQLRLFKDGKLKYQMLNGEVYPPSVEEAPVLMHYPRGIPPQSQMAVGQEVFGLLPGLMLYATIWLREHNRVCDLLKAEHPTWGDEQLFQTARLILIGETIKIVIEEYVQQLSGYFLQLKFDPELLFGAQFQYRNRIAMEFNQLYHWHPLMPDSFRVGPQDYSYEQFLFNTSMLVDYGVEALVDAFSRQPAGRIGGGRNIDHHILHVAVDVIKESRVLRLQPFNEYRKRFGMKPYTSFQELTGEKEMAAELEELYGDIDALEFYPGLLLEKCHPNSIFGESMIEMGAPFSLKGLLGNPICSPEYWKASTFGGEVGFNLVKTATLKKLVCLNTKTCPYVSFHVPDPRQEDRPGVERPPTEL
# [1] = target: human serum albumin (HSA) (Homo sapiens, UniProt P02768); assay: Fluorescence quenching titration of HSA; settings: for Kd: logKb; for ΔG°: one value per compound, temperature not given; for ΔH° / ΔS°: van't Hoff
# [2] = system: normal human dermal fibroblasts (NHDF); assay: MTT assay, viability of NHDF cell culture (ISO 10993 part 5); assay type: cell-based; settings: NHDF cell cultures, 24 h incubation; for IC50: Homo sapiens, MTT, mean (± SD), n = 5
# Method: The viability of the normal human dermal fibroblasts (NHDF) cell culture after 24 h incubation with the tested compounds 5a-c-7a-c was assessed by carrying out the MTT assay. This test was performed according to ISO 10993 part 5, Appendix C. For all tested compounds, the IC50 values were calculated using four-parameter logistics. Normal human dermal fibroblasts (NHDF) were purchased from the American Type Culture Collection (ATCC) for cytotoxicity evaluation of the tested compounds. The cells were grown in Dulbecco's Modified Eagle Medium DMEM with […] glucose without phenol red supplemented with 10% FBS and 2 mM L-glutamine, and 25 μg/mL gentamicin. The NHDF cells were cultured under standard conditions (5% CO2, 37 °C, and 95% humidity) with evaluation morphology and confluence at least twice a week. For the assay, the cells were used only in a logarithmic growth phase, and the TrypLE solution was used for 2 min at 37 °C to detach cells. Then, the TrypLE solution was inactivated by adding a culture medium, and the suspension of cells was collected into a tube and centrifuged for 5 min at 1000 rpm. Then, the supernatant was removed, fresh medium was added, and the pellet was resuspended and calculated using the […] chamber. The suspension of cells was prepared to allow seeding 10,000 cells/well density and incubated for 24 h to regenerate in CO2-incubator. The tested compounds were dissolved in DMSO to a final concentration of 10 mM and stored at -20 °C. Before use, the compound solution was kept at room temperature until thawing, and then, samples with 3 different concentrations of compounds were prepared (100 μM, 50 μM, and 10 μM) for each compound. The tested concentrations of compounds were prepared in a culture medium. […] The evaluation of the cytotoxicity of the newly synthesized compounds was carried out in accordance with the ISO 10,993 part V standard by performing the MTT test. After seeding at a density of 10,000 cells per well and adhering overnight, the NHDF cells were treated with the test compounds for 24 h in a CO2 incubator. The supernatant was then removed, the cells were washed with PBS, a 1mg/mL solution of MTT dissolved in MEM was added, and the cultures were re-incubated for 2 h in a CO2 incubator. The medium was then removed, and for a further 30 min, the formazan crystals were dissolved in 100 μL of isopropanol. The absorbance was measured with a Varioskan Go microplate reader at a wavelength of 570 nm. […] For enzyme assays, the IC50 was calculated according to the procedure provided by the kit manufacturer. The significance was set at p < 0.05. Based on the tests performed, the test power was calculated to be greater than 80%.
# [3] = system: alpha-1-acid glycoprotein (AAG); assay: Binding site study with AAG, replacement of marker quinaldine red (fluorescence); design: species or system human
# Excerpt: Orosomucoid has seven binding sites in its molecule, but there is only one site where the drugs bind. A very good fluorescent marker for binding site study in the case of AAG is quinalidine red (QR).
# We used a 500 nm excitation wavelength. In these conditions, the maximum emission spectra were located near 600 nm. We increased the molar ratio of the reactants from 1:1:0 to 1:1:10. The intensity of fluorescence decreases during the addition of successive portions of the analyzed compounds.
# Binding site studies were conducted using fluorescence measurements. Spectra were recorded on Cary Eclipse 500 spectrophotometer (Agilent, Santa Clara, CA, USA) at room temperature with a 10 mm path length. HSA and AAG solutions were prepared in phosphate buffer, giving concentrations equal to 1 × 10^−6 M. The concentrations of dansylated-L-glycine (DanG), dansylated-L-phenylalanine (DanF), and quinaldine red (QR) were 1 × 10^−3 M. The densylated amino acids and QR solutions were prepared in ethanol. For the HSA-dansylated amino acids studies, the excitation wavelength was equal to 350 nm, while for the AAG-QR system, it was 500 nm, respectively. Then, 3 mL of protein was mixed with 3 µL of marker solution, giving a molar ratio of 1 to 1. Next, successive portions of the analyzed compounds were added to the mixtures prepared in this way, obtaining the appropriate protein-to-compound molar ratios, amounting to 1:0, 1:0.5, 1:1, 1:2, 1:3, 1:4, 1:5, and 1:10 for the HSA-densylated amino acids systems, and 1:0, 1:0.5, 1:1, 1:2, 1:3, 1:4, 1:6, 1:8, and 1:10 for the AAG-QR systems.
# [4] = AAG:marker:compound molar ratio 1:1:0.5
# [5] = AAG:marker:compound molar ratio 1:1:1
# [6] = AAG:marker:compound molar ratio 1:1:2
# [7] = AAG:marker:compound molar ratio 1:1:3
# [8] = AAG:marker:compound molar ratio 1:1:4
# [9] = AAG:marker:compound molar ratio 1:1:6
# [10] = AAG:marker:compound molar ratio 1:1:8
# [11] = AAG:marker:compound molar ratio 1:1:10
# human serum albumin (HSA), sequence (P02768 25-609): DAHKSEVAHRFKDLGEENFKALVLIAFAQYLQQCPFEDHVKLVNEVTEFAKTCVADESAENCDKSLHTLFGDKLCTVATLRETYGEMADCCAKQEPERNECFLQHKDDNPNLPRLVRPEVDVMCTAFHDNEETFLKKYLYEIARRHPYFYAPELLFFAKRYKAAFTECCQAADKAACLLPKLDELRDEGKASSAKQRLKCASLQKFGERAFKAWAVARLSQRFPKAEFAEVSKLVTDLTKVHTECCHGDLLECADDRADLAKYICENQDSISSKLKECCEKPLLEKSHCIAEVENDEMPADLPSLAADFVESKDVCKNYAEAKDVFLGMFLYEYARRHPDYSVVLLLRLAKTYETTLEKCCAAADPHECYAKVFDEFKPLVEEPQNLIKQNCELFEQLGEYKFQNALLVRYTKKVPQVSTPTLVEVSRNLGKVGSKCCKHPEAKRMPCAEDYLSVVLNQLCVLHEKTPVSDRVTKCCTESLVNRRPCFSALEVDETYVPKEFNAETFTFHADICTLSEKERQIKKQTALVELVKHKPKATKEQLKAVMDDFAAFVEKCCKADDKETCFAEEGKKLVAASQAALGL
Structure (SMILES),melting point [°C],IC50 (COX-1) [µM],Ksv ([1]; T 297 K),kq ([1]; T 297 K),n (number of binding sites) ([1]; T 297 K),Ksv ([1]; T 303 K),kq ([1]; T 303 K),n (number of binding sites) ([1]; T 303 K),Ksv ([1]; T 308 K),kq ([1]; T 308 K),n (number of binding sites) ([1]; T 308 K),Kd ([1]; T 297 K) [µM],Kd ([1]; T 303 K) [µM],Kd ([1]; T 308 K) [µM],ΔG° [1] [kcal/mol],ΔH° [1] [kcal/mol],ΔS° [1] [J·mol^−1·K^−1],IC50 [2] [µM],Cell Morphology in Culture [2],"percentage of the replacement of QR [3, 4] [%]",other results
"Cc1c2c(OCC(=O)N/N=C/c3ccccc3)nn(C)c(=O)c2c(C)n1-c1cccc(Cl)c1 [Compound 5c, N-[(Z/E)-benzylideneamino]-2-[6-(3-chlorophenyl)-3,5,7-trimethyl-4-oxo-pyrrolo[3,4-d]pyridazin-1-yl]oxyacetamide]",273 to 275,98.9 ± 1.6,4.33± 0.25 × 10^5 dm^3·mol^−1,4.33 × 10^13 dm^3·mol^−1·s^−1,0.92 ± 0.06,3.86 ± 0.13 × 10^5 dm^3·mol^−1,3.86 × 10^13 dm^3·mol^−1·s^−1,0.90 ± 0.02,2.87 ± 0.12 × 10^5 dm^3·mol^−1,2.87 × 10^13 dm^3·mol^−1·s^−1,0.85 ± 0.04,6.17,8.91,26.3,-7.163,-23.45,−229.47,95.2 ± 1.5,"Cells with an elongated shape characteristic of fibroblasts, the granularities were observed in 3–5 fields of view from 10 analyzed fields.",31.7,"percentage of the replacement of QR [3, 5]: 39.7%; percentage of the replacement of QR [3, 6]: 52.4%; percentage of the replacement of QR [3, 7]: 54.0%; percentage of the replacement of QR [3, 8]: 54.8%; percentage of the replacement of QR [3, 9]: 55.6%; percentage of the replacement of QR [3, 10]: 55.6%; percentage of the replacement of QR [3, 11]: 55.6%"
"CCCCn1c(C)c2c(OCC(=O)N/N=C/c3ccccc3)nn(C)c(=O)c2c1C [Compound 5a, N-[(Z/E)-benzylideneamino]-2-(6-butyl-3,5,7-trimethyl-4-oxo-pyrrolo[3,4-d]pyridazin-1-yl)oxy-acetamide]",210 to 212,81.9 ± 2.1,1.87 ± 0.04 × 10^5 dm^3·mol^−1,1.87 × 10^13 dm^3·mol^−1·s^−1,0.97 ± 0.04,1.71 ± 0.03 × 10^5 dm^3·mol^−1,1.71 × 10^13 dm^3·mol^−1·s^−1,0.95 ± 0.02,1.41 ± 0.03 × 10^5 dm^3·mol^−1,1.41 × 10^13 dm^3·mol^−1·s^−1,0.92 ± 0.02,7.94,11.2,20.9,-6.979,-16.14,−129.11,85.6 ± 2.5,"Cells with an elongated shape characteristic of fibroblasts, the granularities were observed in 3–5 fields of view from 10 analyzed fields.",23.7,"percentage of the replacement of QR [3, 5]: 35.5%; percentage of the replacement of QR [3, 6]: 48.1%; percentage of the replacement of QR [3, 7]: 55.0%; percentage of the replacement of QR [3, 8]: 58.8%; percentage of the replacement of QR [3, 9]: 65.6%; percentage of the replacement of QR [3, 10]: 69.5%; percentage of the replacement of QR [3, 11]: 72.5%"
"Cc1c2c(OCC(=O)N/N=C/c3ccccc3)nn(C)c(=O)c2c(C)n1-c1ccccc1 [Compound 5b, N-[(Z/E)-benzylideneamino]-2-(3,5,7-trimethyl-4-oxo-6-phenyl-pyrrolo[3,4-d]pyridazin-1-yl)oxy-acetamide]",274 to 275,90.1 ± 1.8,5.55 ± 0.33 × 10^5 dm^3·mol^−1,5.55 × 10^13 dm^3·mol^−1·s^−1,1.15 ± 0.06,5.26 ± 0.28 × 10^5 dm^3·mol^−1,5.26 × 10^13 dm^3·mol^−1·s^−1,1.10 ± 0.10,4.75 ± 0.23 × 10^5 dm^3·mol^−1,4.75 × 10^13 dm^3·mol^−1·s^−1,1.02 ± 0.05,0.263,0.49,1.45,-9.001,-27.77,−264.38,486 ± 6.5,"Normal morphology of fibroblasts-elongated cells, single granular cells in 1 of 10 assessed fields of view.",17.2,"percentage of the replacement of QR [3, 5]: 29.1%; percentage of the replacement of QR [3, 6]: 40.3%; percentage of the replacement of QR [3, 7]: 47.0%; percentage of the replacement of QR [3, 8]: 52.2%; percentage of the replacement of QR [3, 9]: 55.2%; percentage of the replacement of QR [3, 10]: 56.7%; percentage of the replacement of QR [3, 11]: 58.2%"
